The numbers were not newly measured in patent US10105405B2, “Compositions and methods for enhancing brain function using acetyl-L-carnitine, huperzine A and ginkgo biloba” (priority 2006, dated 2018), which cites them from elsewhere.

Each structure is given as a SMILES string.

The data set deals with aged subjects, patients with benign senescent forgetfulness, Alzheimer's disease (AD) and vascular dementia (VD).

`C/C=C1\[C@H]2C=C(C)C[C@]1(N)c1ccc(=O)[nH]c1C2` [Huperzine A]: the memory deficits entry (clinical trials in China) is listed as “significantly relieves memory deficits”. For the same compound, the “peripheral cholinergic side effects” value (compared with other AChEIs in use) is given as “minimal peripheral cholinergic side effects”.
